Data as given in patent publication US5352804A, “Isolation and structure of Halistatin 2” (Arizona Board of Regents, a body corporate, acting on …, priority 1993, dated 1994).
Like-named read-outs stand apart in the source and are kept apart here.

What was measured:
Assay in all cases: NCI human tumor in vitro primary screen
Assay type in all cases: cell-based
[1] = system: OVCAR-8; conditions: ovarian cancer
From the text: (§1) Only two hundred years ago, many diseases ravaged humankind. Many of these diseases now have been controlled or eradicated. In the development of the means to treat or control these diseases, work with the appropriate common experimental animals was of critical importance. With the various types of cancers, and with the HIV virus, such work is presently ongoing. The research for the treatment of various types of cancer is coordinated in the United States by the National Cancer Institute (NCI). NCI, as a government entity, has been charged with assisting anti-cancer research. To establish whether a substance has anti cancer activity, NCI has established a variety of protocols, one of which involves testing the candidate substance against a cell line panel containing 60 human tumor cell lines. This protocol has been verified and is generally accepted throughout the scientific community. This protocol and the established statistical means of evaluating the results obtained therefrom have been fully described in the literature. See Principles & Practice of Oncology PPO Updates, Volume 3, Number 10, Oct. 1989, by Michael R. Boyd, M.D., Ph.D., for an indepth description of the test protocol. The statistical analysis is explained in "Display and Analysis of Patterns of Differential Activity of Drugs Against Human Tumor Cell Lines: Development of Means Graph and COMPARE Algorithm" Journal of the National Cancer Institute Reports Vol. 81, No. 14, Pg. 1088, Jul. 14, 1989, by K. D. Paull et al. Both of these references are incorporated herein by this reference thereto.
(§2) Biological Testing; Data Display and Analysis; Screening Data Summary. Freshly isolated halistatin 2 was tested in the NCI's human tumor, disease-oriented in vitro primary screen, and data calculations performed. Table 3 is a composite prepared from mean graphs constructed from the averaged GI50 values from quadruplicate screenings of Halistatin 2.

[2] = system: HOP-18; conditions: non-small cell lung cancer
From the text: as §1, §2

[3] = system: K-562; conditions: K562, leukemia
From the text: as §1, §2

[4] = system: EKVX; conditions: non-small cell lung cancer
From the text: as §1, §2

[5] = system: MALME-3M; conditions: melanoma
From the text: as §1, §2

[6] = system: 786-0; conditions: renal cancer
From the text: as §1, §2

[7] = system: SK-MEL-5; conditions: melanoma
From the text: as §1, §2

[8] = system: CAKI-1
From the text: as §1, §2

[9] = system: UO-31; conditions: renal cancer
From the text: as §1, §2

[10] = system: SNB-75; conditions: CNS cancer
From the text: as §1, §2

[11] = system: LXFL 529
From the text: as §1, §2

[12] = system: RXF-393
From the text: as §1, §2

[13] = system: A549/ATCC; conditions: non-small cell lung cancer
From the text: as §1, §2

[14] = system: HOP-62; conditions: non-small cell lung cancer
From the text: as §1, §2

[15] = system: SNB-78; conditions: CNS cancer
From the text: as §1, §2

[16] = system: HCT-15; conditions: colon cancer
From the text: as §1, §2

[17] = system: CCRF-CEM; conditions: leukemia
From the text: as §1, §2

[18] = system: KM 20L2
From the text: as §1, §2

[19] = system: OVCAR-4; conditions: ovarian cancer
From the text: as §1, §2

[20] = system: LOX IMVI; conditions: melanoma
From the text: as §1, §2

[21] = system: SK-MEL-28; conditions: melanoma
From the text: as §1, §2

[22] = system: ACHN; conditions: renal cancer
From the text: as §1, §2

[23] = system: SF-295; conditions: CNS cancer
From the text: as §1, §2

[24] = system: SW-620; conditions: colon cancer
From the text: as §1, §2

[25] = read-out: Log10 GI50 (converted)
[26] = read-out: Log10 TGI (converted)
[27] = read-out: averaged negative log10 GI50 (converted)

## C=C1CC2CCC34CC5OC6C(O3)C3OC(CCC3OC6(O)C5O4)CC(=O)OC3C(CC4OC(CCC1O2)CC(C)C4=C)OC1CC2OC4(CC2OC1C3C)CC1OC2(CC(C)C3OC5CC(C(O)CO)OC5CC3O2)CC(C)C1O4 (stereo not drawn) [halistatin 2]
[1]; [25]
  GI50: 1.29 nM
[1]; [26]
  IC (TGI): 7.08 nM
[1]; [27]
  GI50: 1.29 nM
[2]; [25]
  GI50: 2.82 nM
[2]; [26]
  IC (TGI): 10 nM
[2]; [27]
  GI50: 2.82 nM
[3]; [25]
  GI50: 0.229 nM
[3]; [26]
  IC (TGI): 2.57 nM
[3]; [27]
  GI50: 0.229 nM
[4]; [25]
  GI50: 4.07 nM
[4]; [26]
  IC (TGI): 10 nM
[4]; [27]
  GI50: 4.07 nM
[5]; [25]
  GI50: 0.229 nM
[5]; [26]
  IC (TGI): 10 nM
[5]; [27]
  GI50: 0.229 nM
[6]; [25]
  GI50: 0.389 nM
[6]; [26]
  IC (TGI): 10 nM
[6]; [27]
  GI50: 0.389 nM
[7]; [25]
  GI50: 0.182 nM
[7]; [26]
  IC (TGI): 1.82 nM
[7]; [27]
  GI50: 0.182 nM
[8]; CAKl-1, renal cancer, read-out: Log10 GI50 (converted)
  GI50: 1.29 nM
[8]; CAKl-1, renal cancer, read-out: Log10 TGI (converted)
  IC (TGI): 10 nM
[8]; renal cancer, read-out: averaged negative log10 GI50 (converted)
  GI50: 1.29 nM
[9]; [25]
  GI50: 6.03 nM
[9]; [26]
  IC (TGI): 10 nM
[9]; [27]
  GI50: 6.03 nM
[10]; [25]
  GI50: 0.269 nM
[10]; [26]
  IC (TGI): 10 nM
[10]; [27]
  GI50: 0.269 nM
[11]; LXFL529, non-small cell lung cancer, read-out: Log10 GI50 (converted)
  GI50: 0.447 nM
[11]; LXFL529, non-small cell lung cancer, read-out: Log10 TGI (converted)
  IC (TGI): 10 nM
[11]; non-small cell lung cancer, read-out: averaged negative log10 GI50 (converted)
  GI50: 0.447 nM
[12]; RXF 393, printed RXP-393, renal cancer, read-out: Log10 GI50 (converted)
  GI50: 0.479 nM
[12]; RXF 393, printed RXP-393, renal cancer, read-out: Log10 TGI (converted)
  IC (TGI): 3.09 nM
[12]; RXF-393, renal cancer, read-out: averaged negative log10 GI50 (converted)
  GI50: 0.479 nM
[13]; [25]
  GI50: 1.82 nM
[13]; [26]
  IC (TGI): 10 nM
[13]; [27]
  GI50: 1.82 nM
[14]; [25]
  GI50: 0.692 nM
[14]; [26]
  IC (TGI): 7.59 nM
[14]; [27]
  GI50: 0.692 nM
[15]; [25]
  GI50: 0.12 nM
[15]; [26]
  IC (TGI): 10 nM
[15]; [27]
  GI50: 0.12 nM
[16]; [25]
  GI50: 5.5 nM
[16]; [26]
  IC (TGI): 10 nM
[16]; [27]
  GI50: 5.5 nM
[17]; [25]
  GI50: 0.2 nM
[17]; [26]
  IC (TGI): 4.27 nM
[17]; [27]
  GI50: 0.2 nM
[18]; KM 20L2, colon cancer, read-out: averaged negative log10 GI50 (converted)
  GI50: 0.427 nM
[18]; KM-20L2, printed KM2012, colon cancer, read-out: Log10 GI50 (converted)
  GI50: 0.427 nM
[18]; KM-20L2, printed KM2012, colon cancer, read-out: Log10 TGI (converted)
  IC (TGI): 1.91 nM
[19]; [25]
  GI50: 7.76 nM
[19]; [26]
  IC (TGI): 10 nM
[19]; [27]
  GI50: 7.76 nM
[20]; [25]
  GI50: 0.501 nM
[20]; [26]
  IC (TGI): 4.57 nM
[20]; [27]
  GI50: 0.501 nM
[21]; [25]
  GI50: 1 nM
[21]; [26]
  IC (TGI): 10 nM
[21]; [27]
  GI50: 1 nM
[22]; [25]
  GI50: 4.37 nM
[22]; [26]
  IC (TGI): 10 nM
[22]; [27]
  GI50: 4.37 nM
[23]; [25]
  GI50: 0.182 nM
[23]; [26]
  IC (TGI): 5.25 nM
[23]; [27]
  GI50: 0.182 nM
[24]; [25]
  GI50: 0.398 nM
[24]; [26]
  IC (TGI): 10 nM
[24]; [27]
  GI50: 0.398 nM
